# Reference: paper PMC12494798, “Anle138b binds predominantly to the central cavity in lipidic Aβ₄₀ fibrils and modulates fibril formation” (Nature Communications, 2025)
# Molecular target: T1, Aβ₄₀ (L1 lipidic Aβ₄₀ fibril, amyloid beta 1-40) (Homo sapiens, UniProt P05067)
# T1 construct: gene APP; Aβ(1-40), type 1 lipidic (L1) fibril of two protofilaments
# Assay: ITC on preformed L1 fibrils; supported by DNP-enhanced NHHC ssNMR contacts, (H)CANH titration and cryo-EM density
# Format: binding
# T1 sequence (P05067 672-711): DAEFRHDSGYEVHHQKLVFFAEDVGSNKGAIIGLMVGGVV
smiles,measurement,value
"Brc1cccc(-c2cc(-c3ccc4c(c3)OCO4)n[nH]2)c1 [anle138b, 3-(1,3-benzodioxol-5-yl)−5-(3-bromophenyl)−1H-pyrazole]",Kd,640 nM
